# Data published in ChEMBL document CHEMBL4808181, “Hydrophobic Pocket Occupation Design of Difluoro-Biphenyl-Diarylpyrimidines as Non-Nucleoside HIV-1 Reverse Transcriptase Inhibitors: from N-Alkylation to Methyl Hopping on the Pyrimidine Ring” (J Med Chem, 2021).
# pEC50, pIC50: −log10 of the molar value.
# Columns and labels:
# [1] = Toxicity in pregnant mouse assessed as brain damage at 2 g/kg, ig monitored for 2 weeks by HE staining based assay; type: tissue-based; details: in vivo, po, 2000 mg/kg, 336 h
# [2] = Acute toxicity in pregnant mouse assessed as abortion at 2 g/kg, ig; details: in vivo, po, 2000 mg/kg
# [3] = Metabolic stability in human liver microsomes assessed as intrinsic clearance per mg protein; type: ADME, Microsome; details: read-out: CLH
# [4] = tested on: Human immunodeficiency virus 1; experiment: Antiviral activity against HIV-1 infected in human MT-4 cells assessed as reduction in virus-induced cytopathic effect incubated for 5 days by MTT assay; type: functional, organism-based; details: Human immunodeficiency virus 1, MT4, 120 h
# [5] = Acute toxicity in pregnant mouse assessed as death at 2 g/kg, ig; details: in vivo, po, 2000 mg/kg
# [6] = tested on: Human immunodeficiency virus type 1 reverse transcriptase (Human immunodeficiency virus 1), Q72547 [K103N]; experiment: Potency index, ratio of NVP EC50 to test compound EC50 for inhibition of HIV-1 p66/p51 reverse transcriptase K103N mutant
# [7] = Selectivity index, ratio of CC50 for cytotoxicity against human MT-4 cells to EC50 for inhibition of HIV-1 p66/51 reverse transcriptase K103N mutant; type: toxicity, cell-based; details: read-out: Ratio CC50/EC50
# [8] = AUCinfinity in Wistar rat at 5 mg/kg, po; type: ADME, organism-based; parameters: route oral, time infinity, dose 5 mg/kg; details: in vivo
# [9] = MRTinfinity in Wistar rat at 1 mg/kg, iv; type: ADME, organism-based; details: in vivo
# [10] = Toxicity in healthy female mouse assessed as kidney damage at 2 g/kg, ig monitored for 2 weeks by HE staining based assay; type: tissue-based; details: in vivo, po, 2000 mg/kg, 336 h
# [11] = Toxicity in pregnant mouse assessed as heart damage at 2 g/kg, ig monitored for 2 weeks by HE staining based assay; type: tissue-based; details: in vivo, po, 2000 mg/kg, 336 h
# [12] = Toxicity in healthy female mouse assessed as heart damage at 2 g/kg, ig monitored for 2 weeks by HE staining based assay; type: tissue-based; details: in vivo, po, 2000 mg/kg, 336 h
# [13] = molecular target: Human immunodeficiency virus type 1 reverse transcriptase (Human immunodeficiency virus 1, UniProt Q72547, Y181C); experiment: Inhibition of HIV-1 p66/p51 reverse transcriptase Y181C mutant incubated for 40 mins by picogreen dye-based spectrofluorometric analysis
# [14] = Metabolic stability in mouse liver microsomes assessed as intrinsic clearance per mg protein; type: ADME, Microsome
# [15] = AUCinfinity in Wistar rat at 1 mg/kg, iv; type: ADME, organism-based; parameters: route intravenous, time infinity, dose 1 mg/kg; details: in vivo
# [16] = Metabolic stability in mouse liver microsomes assessed as half life; type: ADME, Microsome
# [17] = Toxicity in healthy female mouse assessed as brain damage at 2 g/kg, ig monitored for 2 weeks by HE staining based assay; type: tissue-based; details: in vivo, po, 2000 mg/kg, 336 h
# [18] = AUC in Wistar rat at 5 mg/kg, po; type: ADME, organism-based; parameters: dose 5 mg/kg; details: in vivo
# [19] = Toxicity in pregnant mouse assessed as spleen damage at 2 g/kg, ig monitored for 2 weeks by HE staining based assay; type: tissue-based; details: in vivo, po, 2000 mg/kg, 336 h
# [20] = Toxicity in pregnant mouse assessed as liver damage at 2 g/kg, ig monitored for 2 weeks by HE staining based assay; type: tissue-based; details: in vivo, po, 2000 mg/kg, 336 h
# [21] = Acute toxicity in pregnant mouse assessed as stillborn fetus at 2 g/kg, ig; details: in vivo, po, 2000 mg/kg
# [22] = Metabolic stability in human liver microsomes; type: ADME, Microsome
# [23] = Acute toxicity in healthy female mouse assessed as behavioral abnormalities at 2 g/kg, ig measured for 2 weeks; details: in vivo, po, 2000 mg/kg, 336 h
# [24] = Toxicity in healthy female mouse assessed as liver damage at 2 g/kg, ig monitored for 2 weeks by HE staining based assay; type: tissue-based; details: in vivo, po, 2000 mg/kg, 336 h
# [25] = Selectivity index, ratio of CC50 for cytotoxicity against human MT-4 cells to EC50 for inhibition of HIV-1 p66/51 reverse transcriptase Y181C mutant; type: toxicity, cell-based; details: read-out: Ratio CC50/EC50
# [26] = Toxicity in healthy female mouse assessed as spleen damage at 2 g/kg, ig monitored for 2 weeks by HE staining based assay; type: tissue-based; details: in vivo, po, 2000 mg/kg, 336 h
# [27] = Toxicity in healthy female mouse assessed as lung damage at 2 g/kg, ig monitored for 2 weeks by HE staining based assay; type: tissue-based; details: in vivo, po, 2000 mg/kg, 336 h
# [28] = Acute toxicity in pregnant mouse assessed as increase in body weight at 2 g/kg, ig; details: in vivo, po, 2000 mg/kg
# [29] = Acute toxicity in healthy female mouse assessed as increase in body weight at 2 g/kg, ig; details: in vivo, po, 2000 mg/kg
# [30] = Metabolic stability in mouse liver microsomes; type: ADME, Microsome
# [31] = molecular target: Human immunodeficiency virus type 1 reverse transcriptase (Human immunodeficiency virus 1, UniProt Q72547); experiment: Inhibition of recombinant wild type p66/p51 HIV1 reverse transcriptase incubated for 40 mins by picogreen dye-based spectrofluorometric analysis
# [32] = Selectivity index, ratio of CC50 for human MT-4 cells to EC50 for HIV-1 infected in MT-4 cells; type: toxicity, cell-based; details: read-out: Ratio CC50/EC50
# [33] = Acute toxicity in pregnant mouse assessed as behavioral abnormalities at 2 g/kg, ig measured for 2 weeks; details: in vivo, po, 2000 mg/kg, 336 h
# [34] = Cmax in Wistar rat at 5 mg/kg, po; type: ADME, organism-based; parameters: route oral, dose 5 mg/kg; details: in vivo
# [35] = Metabolic stability in rat liver microsomes assessed as intrinsic clearance per mg protein; type: ADME, Microsome
# [36] = Selectivity index, ratio of CC50 for cytotoxicity against human MT-4 cells to EC50 for inhibition of HIV-1 p66/51 reverse transcriptase E138K mutant; type: toxicity, cell-based; details: read-out: Ratio CC50/EC50
# [37] = molecular target: Human immunodeficiency virus type 1 reverse transcriptase (Human immunodeficiency virus 1, UniProt Q72547, K103N); experiment: Inhibition of HIV-1 p66/p51 reverse transcriptase K103N mutant incubated for 40 mins by picogreen dye-based spectrofluorometric analysis
# [38] = Cytotoxicity against in human MT-4 cells after 5 days by MTT assay; type: cell-based, MT4; details: time 5 day
# [39] = Acute toxicity in pregnant mouse assessed as offspring survival rate at 2 g/kg, ig; details: in vivo, po, 2000 mg/kg
# [40] = Acute toxicity in healthy mouse assessed as death at 2 g/kg, ig; details: in vivo, po, 2000 mg/kg
# [41] = Half life in Wistar rat at 5 mg/kg, po; type: ADME, organism-based; details: in vivo
# [42] = Metabolic stability in rat liver microsomes; type: ADME, Microsome
# [43] = Tmax in Wistar rat at 5 mg/kg, po; type: ADME, organism-based; details: in vivo
# [44] = MRTinfinity in Wistar rat at 5 mg/kg, po; type: ADME, organism-based; details: in vivo
# [45] = Inhibition of HIV-1 p66/p51 reverse transcriptase E138K mutant incubated for 40 mins by picogreen dye-based spectrofluorometric analysis; parameters: species or system Human immunodeficiency virus 1
# [46] = Selectivity index, ratio of CC50 for cytotoxicity against human MT-4 cells to EC50 for inhibition of HIV-1 p66/51 reverse transcriptase L100I mutant; type: toxicity, cell-based; details: read-out: Ratio CC50/EC50
# [47] = Metabolic stability in rat liver microsomes assessed as half life; type: ADME, Microsome
# [48] = AUC in Wistar rat at 1 mg/kg, iv; type: ADME, organism-based; parameters: dose 1 mg/kg; details: in vivo
# [49] = tested on: Human immunodeficiency virus type 1 reverse transcriptase (Human immunodeficiency virus 1), Q72547 [K103N]; experiment: Potency index, ratio of EFV EC50 to test compound EC50 for inhibition of HIV-1 p66/p51 reverse transcriptase K103N mutant
# [50] = molecular target: Human immunodeficiency virus type 1 reverse transcriptase (Human immunodeficiency virus 1, UniProt Q72547, L100I); experiment: Inhibition of HIV-1 p66/p51 reverse transcriptase L100I mutant incubated for 40 mins by picogreen dye-based spectrofluorometric analysis
# [51] = Toxicity in pregnant mouse assessed as kidney damage at 2 g/kg, ig monitored for 2 weeks by HE staining based assay; type: tissue-based; details: in vivo, po, 2000 mg/kg, 336 h
# [52] = Half life in Wistar rat at 1 mg/kg, iv; type: ADME, organism-based; details: in vivo
# [53] = Toxicity in pregnant mouse assessed as lung damage at 2 g/kg, ig monitored for 2 weeks by HE staining based assay; type: tissue-based; details: in vivo, po, 2000 mg/kg, 336 h
smiles,measurement,setting,value
Cc1cnc(Nc2ccc(C#N)cc2)nc1Nc1c(F)cc(-c2ccc(C#N)cc2)cc1F,Activity,[1],Non-Toxic
same,Activity,[2],Non-Toxic
same,microsomal CLint,[3],5 µL/min/mg
same,pEC50,[4],9.00
same,Activity,[5],Non-Toxic
same,Ratio EC50,[6],17
same,selectivity ratio,[7],> 53200
same,AUC(0-inf),[8],130 ng·h/mL
same,MRT inf,[9],0.86 h
same,Activity,[10],Non-Toxic
same,Activity,[11],Non-Toxic
same,Activity,[12],Non-Toxic
same,pEC50,[13],7.95
same,CLH,[14],30.1 µL/min
same,AUC(0-inf),[15],1090 ng·h/mL
same,t1/2,[16],0.768 h
same,Activity,[17],Non-Toxic
same,AUC,[18],115 ng·h/mL
same,Activity,[19],Non-Toxic
same,Activity,[20],Non-Toxic
same,Activity,[21],Non-Toxic
same,k el,[22],8.33e-05 s⁻¹
same,Activity,[23],Non-Toxic
same,Activity,[24],Non-Toxic
same,selectivity ratio,[25],> 25500
same,Activity,[26],Non-Toxic
same,Activity,[27],Non-Toxic
same,Activity,[28],Toxic
same,Activity,[29],Toxic
same,k el,[30],0.00025 s⁻¹
same,pIC50,[31],7.89
same,selectivity ratio,[32],> 208000
same,Activity,[33],Non-Toxic
same,Cmax,[34],38.4 ng/mL
same,CLH,[35],28.4 µL/min
same,selectivity ratio,[36],> 34200
same,pEC50,[37],8.27
same,CC50 at 120 h,[38],> 285000 nM
same,Activity,[39],Non-Toxic
same,Activity,[40],Non-Toxic
same,half-life,[41],2.13 h
same,k el,[42],0.000237 s⁻¹
same,Tmax,[43],0.67 h
same,MRT inf,[44],3.5 h
same,pEC50,[45],8.08
same,selectivity ratio,[46],> 17500
same,t1/2,[47],0.815 h
same,AUC,[48],1080 ng·h/mL
same,Ratio EC50,[49],17
same,pEC50,[50],7.79
same,Activity,[51],Non-Toxic
same,half-life,[52],1.18 h
same,Activity,[53],Non-Toxic
